From PubChem BioAssay (NCI)
Where “and” joins values, the source holds several entries; their conditions need not be identical. Equal entries are not always repeated.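 Where inhibition never reached the appropriate level, the endpoint shown equals the highest concentration tested. Otherwise, values were interpolated linearly from a five-concentration, 48-hour dose response in 96-well plates. At the GI50, growth is halved. The concentration for full growth arrest is given as TGI.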

How the values were obtained:
Test in all cases: NCI anticancer screen, dose series, 48 h
SN12C renal = tested on: SN12C renal
M14 melanoma = tested on: M14 melanoma
SK-MEL-5 melanoma = tested on: SK-MEL-5 melanoma
KM12 colon = tested on: KM12 colon
CCRF-CEM leukemia = tested on: CCRF-CEM leukemia
SF-268 CNS = tested on: SF-268 CNS
COLO 205 colon = tested on: COLO 205 colon
SW-620 colon = tested on: SW-620 colon
UACC-62 melanoma = tested on: UACC-62 melanoma
UACC-257 melanoma = tested on: UACC-257 melanoma

Row | Structure (SMILES) | GI50 (SN12C renal) | TGI (SN12C renal) | GI50 (M14 melanoma) | TGI (M14 melanoma) | GI50 (SK-MEL-5 melanoma) | TGI (SK-MEL-5 melanoma) | GI50 (KM12 colon) | TGI (KM12 colon) | GI50 (CCRF-CEM leukemia) | TGI (CCRF-CEM leukemia) | GI50 (SF-268 CNS) | TGI (SF-268 CNS) | GI50 (COLO 205 colon) | TGI (COLO 205 colon) | GI50 (SW-620 colon) | TGI (SW-620 colon) | GI50 (UACC-62 melanoma) | TGI (UACC-62 melanoma) | GI50 (UACC-257 melanoma) | TGI (UACC-257 melanoma)
1 | C=C1C(=O)O[C@H]2[C@H]1CC/C(COC(=O)CCCCCC(=O)OC/C1=C/CC[C@@]3(C)O[C@H]3[C@H]3OC(=O)C(=C)[C@@H]3CC1)=C\CC[C@@]1(C)O[C@@H]21 | 2860 nM | 11.5 µM | 2680 nM | 8.29 µM | 1910 nM | 4.37 µM | 2.17 µM | 5.4 µM | 393 nM | 3.86 µM | 3440 nM | 14.8 µM | 1460 nM | 3.32 µM | 1350 nM | 3.14 µM | 2020 nM | 4.92 µM | 1930 nM | 5.63 µM
2 | N#Cc1nc(-c2ccc(F)cc2)oc1S(=O)(=O)N1CCCCC1 | 1650 nM | 3.11 µM | 1770 nM | 3.87 µM | 1810 nM | 3.36 µM | 5.23 µM | 19.3 µM | 954 nM | > 100 µM | 2230 nM | 6.23 µM | 2070 nM | 4.2 µM | 1890 nM | 4.11 µM | 1620 nM | 3.01 µM | 1980 nM | 4.58 µM
3 | O=C(O)C[C@H](O)C[C@H](O)/C=C/c1c(C2CC2)nc2ccccc2c1-c1ccc(F)cc1 | 2400 nM and 668 nM | > 100 µM | 5340 nM and 4380 nM | > 100 µM | 12800 nM and 1320 nM | 31.1 µM and 3.56 µM | 34.2 µM and 24.8 µM | > 100 µM | 58400 nM and 25800 nM | > 100 µM | 659 nM and 381 nM | > 100 µM | 43300 nM and 8980 nM | > 100 µM | 18600 nM and 4920 nM | > 100 µM | 2300 nM and 450 nM | > 100 µM | > 100000 nM | > 100 µM
4 | Cc1ccc(/C=C(\C#N)c2cc3ccccc3n2C)cc1 | 614 nM | > 100 µM | 268 nM | > 100 µM | 647 nM | > 100 µM | 0.428 µM | > 100 µM | 355 nM | > 100 µM | 8270 nM | > 100 µM | 410 nM | > 43.5 µM | 361 nM | > 100 µM | 278 nM | > 100 µM | > 100000 nM | > 100 µM
5 | CC(C)N(C(=O)c1cccc(C(=O)N(C(C)C)C(C)C)c1)C(C)C |  | > 100 µM |  | > 100 µM |  | > 100 µM |  | > 100 µM |  | > 100 µM |  | > 100 µM |  | > 100 µM |  | > 100 µM |  | > 100 µM |  | > 100 µM
6 | ClC(Cl)=C(Cl)C1(Cl)CC1COCc1ccccc1 (stereo not given) |  | > 100 µM |  | > 100 µM |  | 31.8 µM |  | > 100 µM |  | 49 µM |  | > 100 µM |  | 61.1 µM |  | > 100 µM |  | 69.5 µM |  | 97.2 µM
7 | CCO/C=C1\N=C(c2ccc(Cl)c(Cl)c2)OC1=O |  | > 100 µM |  | > 100 µM |  | > 100 µM |  | > 100 µM |  | > 100 µM |  | > 100 µM |  | > 100 µM |  | > 100 µM |  | > 100 µM |  | > 100 µM
